In patent publication US9469665B2, “Compound having lysophosphatidylserine receptor function modulation activity” (THE UNIVERSITY OF TOKYO, priority 2013, dated 2016):
Where a name gives a salt, the structure may show the parent alone.

Row | SMILES | melting point [°C]
1 | CCCCCCCC/C=C\CCCCCCCC(=O)OC[C@@H](COCc1ccccc1)OP(=O)(O)OC[C@H](N)C(=O)O (as salt: TFA) [Example 7, (9Z)-Octadeca-9-enoic acid (2R)-2-[((2S)-2-amino-2-carboxy-ethoxy)-hydroxy-phosphoryloxy]-3-benzyloxy-propyl ester] | 118.5 to 122
2 | CCCCCCCCCCCOc1ccccc1CCC(=O)O[C@@H]1COCC[C@H]1OP(=O)(O)OC[C@H](N)C(=O)O (as salt: TFA) [Example 9, (2S)-2-amino-3-(hydroxyl-{(3R,4R)-3-[3-(2-undecyloxy-phenyl)-propionyloxy]-tetrahydropyran-4-yloxy}-phosphoryloxy)-propionic acid] | 122 to 123
3 | CCCCCCCCCCCOc1ccccc1CCC(=O)O[C@H]1CCOC[C@@H]1OP(=O)(O)OC[C@H](N)C(=O)O (as salt: TFA) [Example 10, (2S)-2-amino-3-(hydroxy-{(3S,4S)-4-[3-(2-undecyloxy-phenyl)-propionyloxy]-tetrahydro-pyran-3-yloxy}-phosphoryloxy)-propionic acid] | 96.5 to 98.5
4 | CCCCCCCCCCCOc1ccccc1CCC(=O)O[C@H]1COCC[C@@H]1OP(=O)(O)OC[C@H](N)C(=O)O (as salt: TFA) [Example 11, (2S)-2-amino-3-(hydroxy-{(3S,4S)-3-[3-(2-undecyloxy-phenyl)-propionyloxy]-tetrahydro-pyran-4-yloxy}-phosphoryloxy)-propionic acid] | 132.8 to 134.8
5 | CCCCCCCCCCCOc1ccc(C(C)(C)C)cc1CCC(=O)O[C@H]1COCC[C@@H]1OP(=O)(O)OC[C@H](N)C(=O)O (as salt: TFA) [Example 12, (2S)-2-amino-3-({(3S,4S)-3-[3-(5-tert-butyl-2-undecyloxy-phenyl)-propionyloxy]-tetrahydro-pyran-4-yloxy}-hydroxy-phosphoryloxy)-propionic acid] | 144 to 144.5
6 | CCCCCCCC/C=C\CCCCCCCC(=O)OC[C@H]1OCCC[C@H]1OP(=O)(O)OC[C@H](N)C(=O)O (as salt: TFA) [Example 15, (9Z)-Octadeca-9-enoic acid (2R,3R)-3-[((2S)-2-amino-2-carboxy-ethoxy)-hydroxy-phosphoryloxy]-tetrahydropyran-2-ylmethyl ester] | 70 to 80
7 | N[C@@H](COP(=O)(O)OC[C@H]1OCCC[C@H]1OC(=O)CCc1ccccc1OCc1cccc(Oc2ccccc2)c1)C(=O)O (as salt: TFA) [Example 18] | 65 to 75
8 | CCCCCCCC/C=C\CCCCCCCC(=O)OC[C@H]1OCCC[C@@H]1OP(=O)(O)OC[C@H](N)C(=O)O (as salt: TFA) [Example 20, (9Z)-Octadeca-9-enoic acid (2R,3S)-3-[((2S)-2-amino-2-carboxy-ethoxy)-hydroxy-phosphoryloxy]-tetrahydro-pyran-2-ylmethyl ester] | 70 to 80
9 | CCCCCCCCCCCOc1ccccc1CCC(=O)OC[C@H]1OCCC[C@@H]1OP(=O)(O)OC[C@H](N)C(=O)O (as salt: TFA) [Example 21, (2S)-2-amino-3-(hydroxyl-{(2R,3S)-2-[3-(2-undecyloxy-phenyl)-propionyloxymethyl]-tetrahydro-pyran-3-yloxy}-phosphoryloxy)-propionic acid] | 70 to 86

Other lines, results leading:

Row | melting point [°C] | SMILES
10 | 75 to 86 | C[C@H](OP(=O)(O)OC[C@H]1OCCC[C@@H]1OC(=O)CCc1ccccc1OCc1cccc(Oc2ccccc2)c1)[C@H](N)C(=O)O (as salt: TFA) [Example 27, (2S,3S)-2-amino-3-[hydroxyl-((2R,3S)-3-{3-[2-(3-phenoxy-benzyloxy)-phenyl]-propionyloxy}-tetrahydro-pyran-2-ylmethoxy)-phosphoryloxy]-butyric acid]
11 | 62 to 72 | C[C@H](OP(=O)(O)OC[C@H]1OCCC[C@H]1OC(=O)CCc1ccccc1OCc1cccc(Oc2ccccc2)c1)[C@H](N)C(=O)O (as salt: TFA) [Example 28, (2S,3S)-2-amino-3-[hydroxyl-((2R,3R)-3-{3-[2-(3-phenoxy-benzyloxy)-phenyl]-propionyloxy}-tetrahydro-pyran-2-ylmethoxy)-phosphoryloxy]-butyric acid]
12 | 42 to 54 | C[C@H](OP(=O)(O)O[C@H]1CCCO[C@@H]1COC(=O)CCc1ccccc1OCc1cccc(Oc2ccccc2)c1)[C@H](N)C(=O)O (as salt: TFA) [Example 29, (2S,3S)-2-amino-3-[hydroxy-((2R,3S)-2-{3-[2-(3-phenoxybenzyloxy)-phenyl]-propionyloxymethyl}-tetrahydro-pyran-3-yloxy)-phosphoryloxy]-butyric acid]
13 | 52 to 60 | C[C@H](OP(=O)(O)O[C@@H]1CCCO[C@@H]1COC(=O)CCc1ccccc1OCc1cccc(Oc2ccccc2)c1)[C@H](N)C(=O)O (as salt: TFA) [Example 30, (2S,3S)-2-amino-3-[hydroxy-((2R,3R)-2-{3-[2-(3-phenoxy-benzyloxy)-phenyl]-propionyloxymethyl}-tetrahydro-pyran-3-yloxy)-phosphoryloxy]-butyric acid]
14 | 51.5 to 53.5 | COC[C@H](COC(=O)CCc1ccccc1OCc1cccc(Oc2ccccc2)c1)OP(=O)(O)OC[C@H](N)C(=O)O (as salt: TFA) [Example 31, (2S)-2-amino-3-[hydroxy-((1R)-1-methoxymethyl-2-{3-[2-(3-phenoxy-benzyloxy)-phenyl]-propionyloxy}-ethoxy)-phosphoryloxy]-propionic acid]
